Data reported in patent publication US9402912B2, “Antibiotic conjugates directly linked with steroid drugs” (Allergan, Inc., priority 2013, dated 2016).

What was measured:
[1] = type: in vitro ADME, Dutch Belted rabbits; details: Dutch Belted, rabbit, 1 μM, pH 6
Protocol: Dutch Belted rabbits were euthanized with an overdose of sodium pentobarbital. The corneas were collected and homogenized in ice-cold potassium chloride solution (pH=7.4). The homogenate was centrifuged at 755×g for 30 min at 4° C. and aliquots of the supernatant were stored at or below −70° C. until metabolism experiments were conducted. Prior to storing the homogenates an aliquot was removed for determination of protein concentrations by calculating the 260 nm absorbance using a spectrophotometer. Human recombinant carboxylesterases were purchased from a commercial vendor (BD Gentest™, Bedford, Mass.)
All metabolic stability experiments were performed in triplicate in 96-well plate format. The final incubation mixture contained 1 μM test compound, 0.3 mg/mL corneal protein homogenate or 0.1 mg/mL human recombinant carboxylesterase mixture in a final volume of 0.5 mL 0.1M potassium phosphate buffer (pH=6.0). The final percentage of solvent in the incubation was less than 1.0% to prevent inhibition of enzymatic activity. Following a pre-incubation at 37° C., test article was added to initiate the reaction. At designated time points (typically less than 60 minutes to capture the linear range of metabolite formation), 0.05 mL aliquots were removed from the incubation mixtures using a clean pipet tip and immediately placed in organic solvent to stop any esterase activity. The hydrolysis to the metabolites was confirmed to be due to esterase activity and not chemical lability.
The samples were analyzed by liquid chromatography with mass spectrometry (LC-MS/MS) detection to determine the metabolite concentrations resulting from the metabolism of the hybrid compounds. Internal standards were used to compensate for variability from sample processing, chromatographic elution, mass spectrometer response and ion suppression by matrix components.

[2] = Ocular pharmacokinetics following a single topical ophthalmic administration in rabbits; type: in vivo, New Zealand White Rabbits; details: single topical ocular dose of 0.4% (w/v) solution; cornea, aqueous humor, conjunctiva, eyelid margin; FIG. 2
Protocol: Rabbits were dosed once by ocular instillation to both eyes with each compound formulated in a 0.4% (w/v) solution. At 0.25, 0.5, 1, 2, 6, and 10 hours post dose cornea, aqueous humor, conjunctiva and eyelid margin were collected and stored at approximately −70° C. until bioanalysis. Ocular tissue samples were analyzed by liquid chromatography with mass spectrometry (LC-MS/MS) detection to determine the parent (i.e., ester linked hybrids) and metabolite (i.e. steroid and antibiotic) concentrations resulting from the metabolism of ester linked hybrids. Internal standards were used to compensate for variability from sample processing, chromatographic elution, mass spectrometer response and ion suppression by matrix components.

COc1c(N2CCNC(C)C2)c(F)cc2c(=O)c(C(=O)OCC(=O)[C@]3(O)[C@@H](C)C[C@@H]4[C@H]5CCC6=CC(=O)C=C[C@@]6(C)[C@]5(F)[C@H](O)C[C@]43C)cn(C3CC3)c12 (relative stereo) [Compound 7, 2-[(8R,9S,10R,11R,13R,14R,16S,17S)-9-fluoro-11,17-dihydroxy-10,13,16-trimethyl-3-oxo-6,7,8,9,10,11,12,13,14,15,16,17-dodecahydro-3H-cyclopenta[a]phenanthren-17-yl]-2-oxoethyl rel-1-cyclopropyl-6-fluoro-8-methoxy-7-(3-methylpiperazin-1-yl)-4-oxo-1,4-dihydroquinoline-3-carboxylate]
Rate of formation Metabolite 1 (Dexamethasone) [1]: 7.31 ± 0.62 nM/min/mg | Rate of formation Metabolite 2 (Gatifloxacin) [1]: 4.93 ± 0.48 nM/min/mg

COc1c(N2CCNC(C)C2)c(F)cc2c(=O)c(C(=O)OCC(=O)[C@]3(O)[C@H](C)C[C@@H]4[C@H]5CCC6=CC(=O)C=C[C@@]6(C)[C@]5(F)[C@H](O)C[C@]43C)cn(C3CC3)c12 (relative stereo) [Compound 1, 2-[(8R,9S,10R,11R,13R,14R,16R,17S)-9-fluoro-11,17-dihydroxy-10,13,16-trimethyl-3-oxo-6,7,8,9,10,11,12,13,14,15,16,17-dodecahydro-3H-cyclopenta[a]phenanthren-17-yl]-2-oxoethyl rel-1-cyclopropyl-6-fluoro-8-methoxy-7-(3-methylpiperazin-1-yl)-4-oxo-1,4-dihydroquinoline-3-carboxylate]
Rate of formation Metabolite 1 (Betamethasone) [1]: 7.27 ± 0.58 nM/min/mg | Rate of formation Metabolite 2 (Gatifloxacin) [1]: 4.45 ± 0.28 nM/min/mg

COc1c(N2CCNC(C)C2)c(F)cc2c(=O)c(C(=O)OCC(=O)[C@]3(O)CC[C@@H]4[C@H]5CCC6=CC(=O)C=C[C@@]6(C)[C@@H]5[C@H](O)C[C@]43C)cn(C3CC3)c12 (relative stereo) [Compound 12, 2-[(8R,9R,10S,11R,13R,14R,17S)-11,17-dihydroxy-10,13-dimethyl-3-oxo-6,7,8,9,10,11,12,13,14,15,16,17-dodecahydro-3H-cyclopenta[a]phenanthren-17-yl]-2-oxoethyl rel-1-cyclopropyl-6-fluoro-8-methoxy-7-(3-methylpiperazin-1-yl)-4-oxo-1,4-dihydroquinoline-3-carboxylate]
uptake into ocular tissues and cleavage to Prednisolone and Gatifloxacin (AUC0-10hr) [2]: taken up into rabbit ocular tissues and enzymatically hydrolyzed to the individual antibiotic and steroid | Rate of formation Metabolite 1 (Prednisolone) [1]: 6.02 ± 0.63 nM/min/mg | Rate of formation Metabolite 2 (Gatifloxacin) [1]: 3.46 ± 0.50 nM/min/mg
